Here are results for two compounds from patent publication US20210252025A1, “SYNERGIC PHARMACEUTICAL COMBINATION OF A SELECTIVE INHIBITOR OF CYCLOOXYGENASE-2 AND AN ANTHRAQUINONE DERIVATIVE” (priority 2018, published 2021).

Molecules are shown by their SMILES.

For data set [1], the system named is rats with gout induced by intra-articular uric acid. Nature of the data set: Pain-induced functional impairment model in the rat (PIFIR model), antinociceptive effects. In kind it is in vivo, male Wistar rats. As for the experimental part: The following compounds were employed: uric acid, celecoxib and diacerein, propylene glycol, carboxymethyl cellulose and mineral oil. The celecoxib and diacerein were dissolved in propylene glycol (5%) and carboxymethyl cellulose.
It started with determining the antinociceptive effects of the individual compounds to then go on to analyze the effects of the combination, employing the “Pain-induced functional impairment model in the rat” (“PIFIR model”). The animals were anesthetized in a glass desiccator, saturated with ether vapor. The gout was induced by applying an intra-articular injection (i.a.) of 0.05 ml of uric acid suspended in mineral oil at 30% in the right hind member, precisely in the femur-tibia-patella joint.
A 1 mL glass syringe with a 4-mm-long No. 22 needle was used for the intra-articular injection. Immediately afterwards, an electrode is attached to each hind paw (of the rats) in the middle of the plantar calluses. The rats were left to recover from the anesthesia and placed in a 30-cm-diameter rotary stainless-steel cylinder. The cylinder was turned at 4 r.p.m., forcing the rats to walk for 2 min every half hour, for a total of 6.5 hours, (2.5 h to generate the arthritis and 4 h for the assessment of antinociceptive effects. The variable measured was the contact time of each one of the rats' hind legs in the cylinder.
First it was decided to determine the range of doses that could form the celecoxib dose/response curve. […] The 50 mg/kg dose of diacerein has been determined to be a proper dose in the preclinical stage to be employed in combination and be able to determine if changes are produced in the antinociceptive effects.
Thus, the possible antinociceptive effects of both the individual and the combined forms of the compounds were determined and analyzed using animals with gout in the experimental model of Pain-induced functional impairment model in the rat. […]
After the uric acid was administered to the joint to produce the gout type impairment and alteration, there was a wait of 2.5 hours for the total impairment to be produced (the symptoms of gout were already complete at 2.5 hours after the uric acid was administered). This time (2.5 hours after the administration of the uric acid) was considered to be “0” time, for administering the treatment, at this moment, with the individual drugs and the drugs in combined form, followed by the temporary courses of each treatment being determined for the following 4 hours. […]
From the afore-described that corresponds to the experimental model of preclinical analysis of this combination of celecoxib with diacerein whose protection is being sought, the following results were obtained: The data are expressed as a percentage Functionality Index (FI %). […]

The subject of a further data set is rats. Nature of the data set: Assessment of toxic effects (lethality), oral. From the text: In order to determine possible antinociceptive effects and toxic effects, male Wistar rats [Crl:(WI)BR] were employed with a weight of between 180 and 200 g. All the experimental procedures followed the recommendations of the Committee for Research and Ethical Issues of the International Association for the Study of Pain and the Guidelines on Ethical Standards for Investigations of Experiment Pain in Animals. The number of animals for experimentation was kept to a minimum (6 animals per experimental point for antinociceptive effects and 10 animals per experimental point for adverse effects: lethality). The animals were kept in a room with alternating dark/light cycles. Twelve hours before the antinociception experiments, food was withdrawn from the rats, only leaving them free access to water. All the experiments were carried out during the light phase.
In the determinations presented for the individual drugs or drugs in combination, an attempt was made to administer the treatment on a single occasion but, when this was not possible owing to the high concentration and limits of solubility, several administrations were made with 3-hour time intervals. The established doses were always increased in logarithmic units administered orally both for celecoxib and for diacerein.
In the determinations presented below, the treatment was administered on a single occasion and, in the case of celecoxib, high doses in several administrations until the required dose is completed. The established doses were always increased in logarithmic units and administered orally.

For data set [2] the following is noted: cited from earlier work.

As to `Cc1ccc(-c2cc(C(F)(F)F)nn2-c2ccc(S(N)(=O)=O)cc2)cc1` [celecoxib, 4-[5-(4-methylphenyl)-3-(trifluoromethyl)-1H-pyrazol-1-yl]benzenesulfonamide], in data set [1] (celecoxib by itself, oral, acute administration, doses 3.2 to 1000 mg/kg, 4 h assessment, mean ± standard error, FIG. 2), the “maximum antinociceptive effectiveness (AUC of temporary courses, DRC)” value is 191.9±27.2 au. Besides, in data set [1] (oral, acute administration, 4 h, celecoxib 3.2 to 1000 mg/kg alone or with diacerein 50 mg/kg), the “temporary courses of antinociceptive effect (FI %), dose dependence” value was “dose-dependent antinociceptive effects”. For the same compound, the “antinociceptive effects of chronic treatment compared with acute administration” value in data set [1] (oral, chronic (7 days) vs acute form) was “better antinociceptive effects”. The “dose that starts to generate effects of lethality at 24 hours” value in the data set on rats (oral, rats, 24 h post-treatment, FIG. 7) was 17800 mg/kg. Further, in the data set with rats (oral, rats, 48 h post-treatment, FIG. 8), the “dose that starts to generate effects of lethality at 48 hours” value worked out at 10000 mg/kg. The “dose that starts to generate effects of lethality at 72 hours” value with rats (oral, rats, 72 h post-treatment, FIG. 9) was 5600 mg/kg. Further, in data set [2] (in vivo), the “binding to plasma proteins” value is 97%. Moreover, in data set [2] (oral), the “time to maximum plasma concentration” value is “around 3 hours”.
`CC(=O)Oc1cccc2c1C(=O)c1c(OC(C)=O)cc(C(=O)O)cc1C2=O` [diacerein, 4,5-Bis(acetyloxy)-9,10-dihydro-9,10-dioxo-2-anthracenecarboxylic acid]: in data set [1] (50 mg/kg oral doses, 4 h of assessment), the “antinociceptive effect (recovery of FI %)” value is “did not show any antinociceptive effect whatsoever”. In addition, the “dose that starts to generate effects of lethality at 48 hours” value with rats (male, Wistar [Crl:(WI)BR], rat, in vivo, po, 48 h) was found to be 1800 mg/kg. Besides, the “dose that starts to generate effects of lethality at 72 hours” value with rats (male, Wistar [Crl:(WI)BR], rat, in vivo, po, 72 h) worked out at 1000 mg/kg. In addition, the “position of the DRC for the effects of lethality” value in the data set with rats (oral, rats, relative to the DRC of celecoxib by itself) is given as “more to the left of that of celecoxib”.
